One compound from patent US20110110940A1, “Methods for Enhancing the Efficacy of Vascular Disrupting Agents” (OXIGENE, INC., priority 2008, published 2011) can be followed below.

SMILES strings stand for the structures.

The subject of this test is GFP+ bone marrow cells in the viable tumor rim of LLC tumors. Nature of the test: Homing/invasion of GFP+ bone marrow cells (CEPs) to the viable tumor rim and incorporation into CD31+ tumor vasculature, confocal microscopy of LLC tumor sections. The following applies: 3 days after treatment. Format: in vivo, mice. An excerpt: Integrin ∘4β1 (VLA4) promotes the homing of circulating cells to the α4β1 ligand binding (VCAM) expressed at the tumor site (Jin et al. 2006. J Clin Invest 116:652-662). […] We determined whether α4β1 integrin contributes to CEP and possibly other types of bone-marrow pro-angiogenic cell invasion and homing to the viable tumor rim after VDA treatment. To this end, green fluorescent protein (GFP)positive bone marrow cells obtained from syngeneic UBI/GFP/BL6 donor mice (The Jackson Laboratory, Bar Harbor, Me.) were transplanted into lethally irradiated C57Bl/6 recipient mice (as described in Theise, et al. 2000. Hepatology 31:235-240). Three weeks later, mice were subcutaneously (s.c.) implanted with 0.5×10^6 Lewis Lung Carcinoma (LLC) cells (ATCC, Manassas, Va.).
When tumors reached 500 mm^3, mice were treated with an integrin α4β1 specific blocking antibody (Jin 2006), CA1P, or a combination of the two agents. After 3 days, tumor volumes were measured, mice were sacrificed and tumors were removed for the evaluation of necrosis (FIG. 1A) and incorporation of bone marrow cells to the tumor vasculature (FIG. 1B). […] FIG. 1C provides tumor volumes measured three days after treatment and normalized to untreated control tumors. *: 0.05>p>0.01; **: p<0.01. Tumor size was assessed with Vernier calipers by using the formula width^2×length×0.5. […]

On to `COc1cc(/C=C\c2ccc(OC)c(OP(=O)(O)O)c2OP(=O)(O)O)cc(OC)c1OC` [CA1P, combretastatin A-1 diphosphate], for which the “invasion/homing of GFP+ cells (bone marrow cells) in the viable tumor rim (FIG. 1B)” value is given as “massive invasion of GFP^+ cells”. In addition, the “incorporation of GFP+ cells into blood vessels (colocalization of GFP+ and CD31+ cells, FIG. 1B)” value (CD31 staining) was “some of which were found to incorporate into blood vessels”.
